# In patent publication US8673977B2, “Choline salts of succinic acid for the treatment of depression, anxiety, schizophrenia, sleep disorder, and epilepsy” (priority 2008, dated 2014):
# Where two headings read alike, the source gives them in different places.
# Experiments:
# young male CD1 mice [1] = conditions: mean±SEM, scored during 6 min
# Experimental: (A) In the forced swim test, young male CD1 mice, singly housed, were used. Mice were treated i.p. with saline (control) or 25 mg/kg compounds (I) or (II) for 7 days once-a-day and tested at 8th day. In the reference group, mice were treated i.p. with 10 mg/kg Imipramine 30 min prior the swimming test. Forced swim test was done in a glass cylinder 17 cm diameter, water height 13 cm (7 cm to the edge of a cylinder) filled with water at ambient temperature. Animals were scored during 6 min. The latency of the first floating episode was accepted as a measure of forced swim behavior. Statistical analysis was done using ANOVA and Mann-Whitney test as a post-hoc analysis.
# Stressed mice = conditions: mean±SEM; stressed mice from Example 2 (i.p. 25 mg/kg for 7 days prior stress); scored during 5 min
# Experimental: (B) In the chronic stress depression model, young male CD1 mice, singly housed, were used. […] Stress procedure was used for 10 days.
# Effect of the treatment of anxiety with compounds of the invention was assessed in rodents in light/dark transition test. Stressed mice from the Example 2 were tested in a dark/light box as described by Crawley et al., Pharmacol Biochem Behav 13, 167-70 (1980). Animals were scored during 5 min for (i) total time spent in light box and (ii) number of exits. […] Data are presented in Table 3 as mean±SEM of (i) total time spent in light box and (ii) number of exits.
# Rats = conditions: rats pretreated i.p. 25 mg/kg for 7 days once-a-day; at day 8, 10 mg/kg caffeine
# Experimental: Effect of the treatment of sleep disorder (insomnia) with compound II of the present invention was assessed in caffeine-induced model of insomnia. Rats were treated for 7 days once-a-day with i.p. 25 mg/kg compound II or saline (control).
# young male CD1 mice [2] = conditions: mean±SEM, n=20
# Experimental: (B) In the chronic stress depression model, young male CD1 mice, singly housed, were used. […] Stress procedure was used for 10 days. In the reference group, mice received Imipramine orally 8 mg/kg per day for 7 days prior the stress and then in a course on entire 10-days-stress-procedure. Animals (n=20 per group) were tested on a sucrose preference at 10th day of the stress procedure. Statistical analysis was done using ANOVA and Mann-Whitney test as a post-hoc analysis. Data are presented in Table 2 as mean±SEM of a percentage of sucrose preference.
# [3] = system: mice with seizures induced by pentylenetetrazol; conditions: i.p. 10 mg/kg for 7 days once-a-day, pentylenetetrazol administered
# Experimental: Effect of the treatment of epilepsy with compounds of the invention was assessed in mice with seizures induced by pentylenetetrazol. Loscher et al., Epilepsy Res 1991, 8:171-189. Mice were treated for 7 days once-a-day with i.p. 10 mg/kg compound II or saline (control). Pentylenetetrazol was administered.
# [4] = system: rats raised in social isolation (ISO); conditions: mean±SEM; socially isolated rats, i.p. 25 mg/kg for 7 days once-a-day; 80 dB prepulse, 110 dB pulse, prepulse latency 100 milliseconds
# Experimental: Rats were treated for 7 days once-a-day with i.p. 25 mg/kg compound II or saline (control).
# [5] = i.p. 25 mg/kg for 7 days once-a-day, tested at 8th day
smiles,measurement,setting,value
"C[N+](C)(C)CCO.O=C([O-])CCC(=O)O [Compound (I), monocholine salt of succinic acid]",Latency of the first floating episode,young male CD1 mice [1]; [5],117 ± 18 s
"C[N+](C)(C)CCO.C[N+](C)(C)CCO.O=C([O-])CCC(=O)[O-] [Compound (II), dicholine salt of succinic acid]",Number of exits,Stressed mice,4.8 ± 0.6
same,Time (total time spent in light box),Stressed mice,250 ± 11 s
same,sleep onset latency (SOL) after caffeine as compared to vehicle,Rats,caffeine did not prolonged SOL
same,Sucrose preference,"young male CD1 mice [2]; i.p. 25 mg/kg for 7 days once-a-day prior the onset of stress, tested at 10th day of stress",72 ± 3 %
same,seizures as compared to control,[3],significantly decreases seizures
same,Prepulse inhibition,[4],51 ± 9 %
same,Latency of the first floating episode,young male CD1 mice [1]; [5],140 ± 11 s
"CN(C)CCCN1c2ccccc2CCc2ccccc21 [Imipramine, reference compound]",Sucrose preference,"young male CD1 mice [2]; reference group, orally 8 mg/kg per day for 7 days prior the stress and during 10-days stress, tested at 10th day",75 ± 4 %
same,Latency of the first floating episode,"young male CD1 mice [1]; reference group, i.p. 10 mg/kg 30 min prior the swimming test",60 ± 26 s
